Experiments:
U937 cells = experiment: Cellular assay in U937 cells: activity of RIPK1 inhibitors on TNFα/zVAD.fmk-induced cell death (necroptosis), CellTiter 96 AQueous (MTS) readout; type: cell-based; details: Homo sapiens, U-937
Method in brief: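 Necroptosis was measured by viable-cell MTS reduction (4 h, absorbance 490 nm) after overnight (18–24 h) 37° C culture. Cell suspensions of U937 cells carried TNFα (100 ng/ml) plus zVAD.fmk (50 μM) before compound was added. A 10-point curve (10 μM–0.26 nM or 1 μM–0.07 nM) was run in duplicate, normalised to the control lacking TNFα/zVAD.fmk.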

[1] = target: T1, hRIPK1 (aa 1-375) fusion protein (Homo sapiens, UniProt Q13546); experiment: ADP-Glo kinase assay: catalytic activity of RIPK1 (autophosphorylation, conversion of ATP to ADP); type: biochemical
T1 construct: hRIPK1 (aa 1-375) fusion protein
T1 sequence (Q13546 1-375): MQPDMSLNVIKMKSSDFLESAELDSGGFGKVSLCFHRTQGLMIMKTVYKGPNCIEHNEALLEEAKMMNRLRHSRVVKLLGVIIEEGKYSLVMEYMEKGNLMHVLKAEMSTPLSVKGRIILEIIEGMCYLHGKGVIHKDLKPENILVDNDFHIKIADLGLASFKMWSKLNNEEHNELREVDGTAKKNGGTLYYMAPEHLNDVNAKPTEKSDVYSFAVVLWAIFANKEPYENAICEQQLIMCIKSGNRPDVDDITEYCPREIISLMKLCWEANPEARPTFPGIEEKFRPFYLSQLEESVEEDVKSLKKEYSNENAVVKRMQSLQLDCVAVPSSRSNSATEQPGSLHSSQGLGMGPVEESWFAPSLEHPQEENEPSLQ
Method in brief: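 The readout was ADP-Glo luminescence after a 240 min rt autophosphorylation reaction with 50 μM ATP, following 30 min preincubation of 3.6 μg/ml hRIPK1 (aa 1-375) fusion with compound at 33300-1.69 nM final in 1% DMSO. Values came from Levenberg-Marquardt nonlinear fits.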

Row | Structure (SMILES) | IC50 [1] | IC50 (U937 cells)
1 | N#Cc1cncc(C[C@H]2CC[C@H](C(=O)N3OCC[C@H]3c3cnccn3)CC2)c1 [compound 140, trans-5-[[4-[(3S)-3-pyrazin-2-ylisoxazolidine-2-carbonyl]cyclohexyl]methyl]pyridine-3-carbonitrile] | 40 nM | 173 nM
2 | N#Cc1cc(F)cc([C@@H]2CCON2C(=O)[C@H]2CC[C@H](Cc3ccc4ncnn4c3)CC2)c1 [compound 142, trans-3-fluoro-5-[(3S)-2-[4-([1,2,4]triazolo[1,5-a]pyridin-6-ylmethyl)cyclohexanecarbonyl]isoxazolidin-3-yl]benzonitrile] | 38 nM | 4 nM
3 | O=C([C@H]1CC[C@H](Cc2ccc3ncnn3c2)CC1)N1OCC[C@H]1c1cnccn1 [compound 143, trans-[(3S)-3-pyrazin-2-ylisoxazolidin-2-yl]-[4-([1,2,4]triazolo[1,5-a]pyridin-6-ylmethyl)cyclohexyl]methanone] | 76 nM | 44 nM
4 | O=C1NCc2ccc(C[C@H]3CC[C@H](C(=O)N4OCC[C@H]4c4cnccn4)CC3)cc21 [compound 145, trans-6-[[4-[(3S)-3-pyrazin-2-ylisoxazolidine-2-carbonyl]cyclohexyl]methyl]isoindolin-1-one] | 29 nM | 16 nM
5 | N#Cc1cc(F)cc([C@@H]2CCON2C(=O)[C@H]2CC[C@H](Cn3ccc4ncc(OC5COC5)cc43)CC2)c1 [compound 146, trans-3-fluoro-5-[(3S)-2-[4-[[6-(oxetan-3-yloxy)pyrrolo[3,2-b]pyridin-1-yl]methyl]cyclohexanecarbonyl]isoxazolidin-3-yl]benzonitrile] | 28 nM | 26 nM
6 | O=C([C@H]1CC[C@H](Cc2cncc(F)c2)CC1)N1OCC[C@H]1c1cnccn1 [compound 147, trans-[4-[(5-fluoro-3-pyridyl)methyl]cyclohexyl]-[(3S)-3-pyrazin-2-ylisoxazolidin-2-yl]methanone] | 27 nM | 40 nM
7 | Cn1cc(C[C@H]2CC[C@H](C(=O)N3OCC[C@H]3c3cnccn3)CC2)cn1 [compound 151, trans-[4-[(1-methylpyrazol-4-yl)methyl]cyclohexyl]-[(3S)-3-pyrazin-2-ylisoxazolidin-2-yl]methanone] | 46 nM | 214 nM
8 | O=C1NCc2ccc(C[C@H]3CC[C@H](C(=O)N4OCC[C@H]4c4ccc(F)cc4)CC3)cc21 [compound 154, trans-6-[[4-[(3S)-3-(4-fluorophenyl)isoxazolidine-2-carbonyl]cyclohexyl]methyl]isoindolin-1-one] | 23 nM | 33 nM
9 | Cc1ccc([C@@H]2CCON2C(=O)[C@H]2CC[C@H](Cc3ccc4c(c3)C(=O)NC4)CC2)cn1 [compound 157, trans-6-[[4-[(3S)-3-(6-methyl-3-pyridyl)isoxazolidine-2-carbonyl]cyclohexyl]methyl]isoindolin-1-one] | 33 nM | 396 nM

Compounds with a lower IC50 [1], results first:

Row | IC50 [1] | Structure (SMILES) | IC50 (U937 cells)
10 | 18 nM | Cc1ccc(C[C@H]2CC[C@H](C(=O)N3OCC[C@H]3c3cnccn3)CC2)cc1C(N)=O [compound 138, trans-2-methyl-5-[[4-[(3S)-3-pyrazin-2-ylisoxazolidine-2-carbonyl]cyclohexyl]methyl]benzamide] | 25 nM
11 | 10 nM | Cc1ccc(C[C@H]2CC[C@H](C(=O)N3OCC[C@H]3c3cnccn3)CC2)cc1C#N [compound 139, trans-2-methyl-5-[[4-[(3S)-3-pyrazin-2-ylisoxazolidine-2-carbonyl]cyclohexyl]methyl]benzonitrile] | 2 nM
12 | 13 nM | N#Cc1cncc(C[C@H]2CC[C@H](C(=O)N3OCC[C@H]3c3cc(F)cc(C#N)c3)CC2)c1 [compound 141, trans-5-[[4-[(3S)-3-(3-cyano-5-fluoro-phenyl)isoxazolidine-2-carbonyl]cyclohexyl]methyl]pyridine-3-carbonitrile] | 17 nM
13 | 22 nM | N#Cc1cc(F)cc([C@@H]2CCON2C(=O)[C@H]2CC[C@H](Cc3ccc4c(c3)C(=O)NC4)CC2)c1 [compound 144, trans-3-fluoro-5-[(3S)-2-[4-[(3-oxoisoindolin-5-yl)methyl]cyclohexanecarbonyl]isoxazolidin-3-yl]benzonitrile] | 3 nM
14 | 18 nM | N#Cc1cc(F)cc([C@@H]2CCON2C(=O)[C@H]2CC[C@H](Cc3cncc(F)c3)CC2)c1 [compound 148, trans-3-fluoro-5-[(3S)-2-[4-[(5-fluoro-3-pyridyl)methyl]cyclohexanecarbonyl]isoxazolidin-3-yl]benzonitrile] | 4 nM
15 | 9 nM | COCCOc1cnc2ccn(C[C@H]3CC[C@H](C(=O)N4OCC[C@H]4c4cc(F)cc(C#N)c4)CC3)c2c1 [compound 149, trans-3-fluoro-5-[(3S)-2-[4-[[6-(2-methoxyethoxy)pyrrolo[3,2-b]pyridin-1-yl]methyl]cyclohexanecarbonyl]isoxazolidin-3-yl]benzonitrile] | 8 nM
16 | 21 nM | Cn1cc(C[C@H]2CC[C@H](C(=O)N3OCC[C@H]3c3cc(F)cc(C#N)c3)CC2)cn1 [compound 150, trans-3-fluoro-5-[(3S)-2-[4-[(1-methylpyrazol-4-yl)methyl]cyclohexanecarbonyl]isoxazolidin-3-yl]benzonitrile] | 25 nM
17 | 7 nM | N#Cc1cc(F)cc([C@@H]2CCON2C(=O)[C@H]2CC[C@H](Cn3ccc4ncc(OCC5CC5)cc43)CC2)c1 [compound 152, trans-3-[(3S)-2-[4-[[6-(cyclopropylmethoxy)pyrrolo[3,2-b]pyridin-1-yl]methyl]cyclohexanecarbonyl]isoxazolidin-3-yl]-5-fluoro-benzonitrile] | 3 nM
18 | 6 nM | N#Cc1cc(F)cc([C@@H]2CCON2C(=O)[C@H]2CC[C@H](Cn3ccc4ncc(OCCO)cc43)CC2)c1 [compound 153, trans-3-fluoro-5-[(3S)-2-[4-[[6-(2-hydroxyethoxy)pyrrolo[3,2-b]pyridin-1-yl]methyl]cyclohexanecarbonyl]isoxazolidin-3-yl]benzonitrile] | 3 nM
19 | 15 nM | O=C1NCc2ccc(C[C@H]3CC[C@H](C(=O)N4OCC[C@H]4c4cncc(F)c4)CC3)cc21 [compound 155, trans-6-[[4-[(3S)-3-(5-fluoro-3-pyridyl)isoxazolidine-2-carbonyl]cyclohexyl]methyl]isoindolin-1-one] | 19 nM
20 | 16 nM | O=C1NCc2ccc(C[C@H]3CC[C@H](C(=O)N4OCC[C@H]4c4cc(F)cc(F)c4)CC3)cc21 [compound 156, trans-6-[[4-[(3S)-3-(3,5-difluorophenyl)isoxazolidine-2-carbonyl]cyclohexyl]methyl]isoindolin-1-one] | 6 nM
21 | 9 nM | Cc1ccc(C[C@H]2CC[C@H](C(=O)N3OCC[C@H]3c3cncc(C#N)c3)CC2)cc1C(N)=O [compound 158, trans-5-[[4-[(3S)-3-(5-cyano-3-pyridyl)isoxazolidine-2-carbonyl]cyclohexyl]methyl]-2-methyl-benzamide] | 33 nM
22 | 7 nM | Cc1nc([C@@H]2CCON2C(=O)[C@H]2CC[C@H](Cc3ccc(C)c(C(N)=O)c3)CC2)cs1 [compound 159, trans-2-methyl-5-[[4-[(3S)-3-(2-methylthiazol-4-yl)isoxazolidine-2-carbonyl]cyclohexyl]methyl]benzamide] | 48 nM
